Experimental data reported in patent US20070249670A1, “Glycogen Phosphorylase Inhibitor Compounds and Pharmaceutical Compositions Thereof” (SMITHKLINE BEECHAM CORPORATION, priority 2004, published 2007).
Counter-ions that a name gives are not always drawn.

Target: T1, human liver glycogen phosphorylase a (HLGPa) (Homo sapiens, UniProt P06737)
T1 construct: creating a full-length cDNA fused at the 5′ end to codons for methionine-glycine-alanine-histidine; 6xHis tag (leader Met-Gly-Ala-His6-Gly-Gly) (N); made in house; host or cells: E. coli (bacterial expression plasmid pTXK1007LTev)
T1 sequence (P06737 2-847 limits assumed): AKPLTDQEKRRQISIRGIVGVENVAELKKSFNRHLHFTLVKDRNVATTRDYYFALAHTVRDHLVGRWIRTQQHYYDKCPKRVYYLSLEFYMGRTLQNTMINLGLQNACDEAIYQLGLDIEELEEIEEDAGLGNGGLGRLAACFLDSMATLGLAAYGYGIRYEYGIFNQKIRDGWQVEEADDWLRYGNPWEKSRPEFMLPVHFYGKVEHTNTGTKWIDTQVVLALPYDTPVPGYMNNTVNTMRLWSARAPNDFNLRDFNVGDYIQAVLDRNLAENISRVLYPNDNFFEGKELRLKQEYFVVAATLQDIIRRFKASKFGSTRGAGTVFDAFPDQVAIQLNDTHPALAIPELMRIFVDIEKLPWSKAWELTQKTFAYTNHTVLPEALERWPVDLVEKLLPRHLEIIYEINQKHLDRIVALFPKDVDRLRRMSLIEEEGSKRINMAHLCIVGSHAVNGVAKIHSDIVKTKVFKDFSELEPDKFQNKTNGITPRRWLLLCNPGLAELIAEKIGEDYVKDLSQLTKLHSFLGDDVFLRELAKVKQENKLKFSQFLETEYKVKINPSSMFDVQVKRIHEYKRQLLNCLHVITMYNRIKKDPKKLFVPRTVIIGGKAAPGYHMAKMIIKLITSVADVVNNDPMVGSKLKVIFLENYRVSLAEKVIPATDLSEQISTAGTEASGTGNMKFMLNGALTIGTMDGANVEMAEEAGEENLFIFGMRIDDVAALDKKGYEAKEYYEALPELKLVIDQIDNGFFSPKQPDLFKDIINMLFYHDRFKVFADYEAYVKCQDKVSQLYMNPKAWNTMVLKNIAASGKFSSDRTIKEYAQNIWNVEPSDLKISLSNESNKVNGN
Test: Human liver glycogen phosphorylase a enzymatic activity assay (coupled, fluorescent resorufin readout, with and without 10 mM glucose)
Assay type: biochemical

[1] = human liver glycogen phosphorylase a enzymatic activity assay
[2] = human liver glycogen phosphorylase a, table does not say whether with or without 10 mM glucose

| SMILES | IC50 [1] [µM] | IC50 [2] [µM] |
| --- | --- | --- |
| O=C(O)CNC(=O)c1cc2ccccc2cc1NC(=O)Nc1ccccc1Cl [Example 12, N-[3-({[(2-chlorophenyl)amino]carbonyl}amino)-2-naphthoyl]glycine] | 2.52 |  |
| NC(=O)C[C@H](NC(=O)c1cc2ccccc2cc1NC(=O)Nc1ccccc1Cl)C(=O)O [Example 31, N-[3-({[(2-chlorophenyl)amino]carbonyl}amino)-2-naphthoyl]-L-asparagine] | 11.4 |  |
| Cc1cccc(C)c1NC(=O)Nc1cc2ccccc2cc1C(=O)N[C@@H](C)C(=O)O [Example 18, N-[3-({[(2,6-dimethylphenyl)amino]carbonyl}amino)-2-naphthoyl]-L-alanine] | 1.48 |  |
| Cc1cc(C)c(NC(=O)Nc2cc(Cl)cnc2C(=O)N[C@H](C(=O)O)C2CCCCC2)c(C)c1 [Example 317, (2S)-({[5-chloro-3-({[(2,4,6-trimethylphenyl)amino]carbonyl}amino)-2-pyridinyl]carbonyl}amino)(cyclohexyl)ethanoic acid] |  | 0.92 |
| Cc1cc(C)c(NC(=O)Nc2cc3ccccc3cc2C(=O)NC(C(=O)O)c2ccccc2)c(C)c1 (stereo not shown) [Example 103, Phenyl({[3-({[(2,4,6-trimethylphenyl)amino]carbonyl}amino)-2-naphthalenyl]carbonyl}amino)acetic acid] | 0.06 |  |
| O=C(Nc1cc2ccccc2cc1C(=O)NC1(C(=O)O)CCCCCCC1)Nc1c(Cl)cc(Cl)cc1Cl [Example 303, 1-({[3-({[(2,4,6-trichlorophenyl)amino]carbonyl}amino)-2-naphthalenyl]carbonyl}amino)cyclooctanecarboxylic acid] |  | 0.057 |
| Cc1cc(CNC(=O)c2cc3ccccc3cc2NC(=O)Nc2c(C)cccc2Cl)on1 [Example 6, 3-({[(2-chloro-6-methylphenyl)amino]carbonyl}amino)-N-[(3-methylisoxazol-5-yl)methyl]-2-naphthamide] | 35.1 |  |
| CC[C@H](C)[C@H](NC(=O)c1c(NC(=O)Nc2c(C)cccc2Cl)sc2c1CCCC2)C(=O)O [Example 128, N-{[2-({[(2-chloro-6-methylphenyl)amino]carbonyl}amino)-4,5,6,7-tetrahydro-1-benzothien-3-yl]carbonyl}-L-isoleucine] | 14.8 |  |
| O=C(Nc1ccccc1Cl)Nc1cc2ccccc2cc1C(=O)N[C@@H](CO)C(=O)O [Example 28, N-[3-({[(2-chlorophenyl)amino]carbonyl}amino)-2-naphthoyl]-L-serine] | 24.1 |  |
| CCc1cccc(CC)c1NC(=O)Nc1sc2c(c1C(=O)N[C@@H](CC(=O)O)C(=O)O)CCCC2 [Example 136, N-{[2-({[(2,6-diethylphenyl)amino]carbonyl}amino)-4,5,6,7-tetrahydro-1-benzothien-3-yl]carbonyl}-L-aspartic acid] | 4.58 |  |
| O=C(Nc1cc2ccccc2cc1C(=O)NC(C(=O)O)[C@H]1CC[C@@H](C(F)(F)F)CC1)Nc1c(Cl)cc(OC(F)(F)F)cc1Cl (stereo partly drawn) [Example 467, {[(3-{[({2,6-dichloro-4-[(trifluoromethyl)oxy]phenyl}amino)carbonyl]amino}-2-naphthalenyl)carbonyl]amino}[cis-4-(trifluoromethyl)cyclohexyl]acetic acid] | 0.035 |  |
| Cc1cccc(C)c1NC(=O)Nc1cc2ccccc2cc1C(=O)N[C@@H](CCC(N)=O)C(=O)O [Example 26, N-[3-({[(2,6-dimethylphenyl)amino]carbonyl}amino)-2-naphthoyl]-L-glutamine] | 3.01 |  |
| C[C@@H](C(=O)O)N(Cc1ccccc1)C(=O)c1cc2ccccc2cc1NC(=O)Nc1c(Cl)cccc1Cl [Example 250, N-{[3-({[(2,6-dichlorophenyl)amino]carbonyl}amino)-2-naphthalenyl]carbonyl}-N-(phenylmethyl)-L-alanine] |  | 7.77 |
| Cc1cc(C)c(NC(=O)Nc2nc3ccccc3cc2C(=O)N[C@H](C(=O)O)C2CCCCC2)c(C)c1 [Example 297, (2S)-cyclohexyl({[2-({[(2,4,6-trimethylphenyl)amino]carbonyl}amino)-3-quinolinyl]carbonyl}amino)ethanoic acid] |  | 15.6 |
| CCOC(=O)C[C@H](NC(=O)c1ccc(-c2ccc(OC)cc2)cc1NC(=O)Nc1c(C)cc(C)cc1C)C(=O)OCc1ccccc1 [Example 366, 4-ethyl 1-(phenylmethyl)N-{[4′-(methyloxy)-3-({[(2,4,6-trimethylphenyl)amino]carbonyl}amino)-4-biphenylyl]carbonyl}-L-aspartate] |  | 11.1 |
| Cc1cc(C)c(-c2ccc(C(=O)Nc3cc4ccccc4cc3C(=O)N[C@H](C(=O)O)C3CCCCC3)o2)c(C)c1 [Example 270, (2S)-cyclohexyl({[3-({[5-(2,4,6-trimethylphenyl)-2-furanyl]carbonyl}amino)-2-naphthalenyl]carbonyl}amino)ethanoic acid] |  | 10.3 |
| COc1cc(NC(=O)Nc2c(C)cccc2Cl)c(C(=O)N[C@@H](CC2CCCCC2)C(=O)O)cc1OC [Example 115, N-[2-({[(2-chloro-6-methylphenyl)amino]carbonyl}amino)-4,5-dimethoxybenzoyl]-3-cyclohexyl-L-alanine] | 13 |  |
| Cc1cc(C)c(NC(=O)Nc2cc(-c3ccc(F)c(F)c3)ccc2C(=O)N[C@H](C(=O)O)[C@@H](C)OC2CCC2)c(C)c1 [Example 519, O-cyclobutyl-N-{[3′,4′-difluoro-3-({[(2,4,6-trimethylphenyl)amino]carbonyl}amino)-4-biphenylyl]carbonyl}-L-threonine] | 0.007 |  |
| CCCc1cc(C)c(NC(=O)Nc2cc(-c3ccc(OC)cc3)ccc2C(=O)N[C@@H](CC(=O)OCC)C(=O)O)c(C)c1 [Example 369, (2S)-2-({[3-({[(2,6-dimethyl-4-propylphenyl)amino]carbonyl}amino)-4′-(methyloxy)-4-biphenylyl]carbonyl}amino)-4-(ethyloxy)-4-oxobutanoic acid] |  | 0.094 |
| Cc1ccccc1NC(=O)Nc1cc2ccccc2cc1C(=O)NCC(=O)O [Example 10, N-[3-({[(2-methylphenyl)amino]carbonyl}amino)-2-naphthoyl]glycine] | 6.5 |  |
| COc1ccc(-c2ccc(C(=O)N[C@H](C(=O)O)[C@@H](C)OC(C)(C)C)c(NC(=O)Nc3c(C)cc(C4CC4)cc3C)c2)cc1 [Example 532, N-{[3-({[(4-cyclopropyl-2,6-dimethylphenyl)amino]carbonyl}amino)-4′-(methyloxy)-4-biphenylyl]carbonyl}-O-(1,1-dimethylethyl)-L-threonine] | 0.011 |  |
| Cc1cccc(C)c1NC(=O)Nc1cc(-c2cncnc2)ccc1C(=O)N[C@H](C(=O)O)C1CCCCC1 [Example 189, (2S)-Cyclohexyl({[2-({[(2,6-dimethylphenyl)amino]carbonyl}amino)-4-(5-pyrimidinyl)phenyl]carbonyl}amino)ethanoic acid] | 0.33 |  |
| COc1ccc(-c2ccc(C(=O)N[C@@H](CC(=O)O)C(=O)O)c(NC(=O)Nc3c(C)cc(C)cc3C)c2)cc1 [Example 362, N-{[4′-(methyloxy)-3-({[(2,4,6-trimethylphenyl)amino]carbonyl}amino)-4-biphenylyl]carbonyl}-L-aspartic acid] |  | 0.006 |
| Cc1cccc(C)c1NC(=O)Nc1cc2ccccc2cc1C(=O)N[C@@H](CC1CCCCC1)C(=O)O [Example 99, 3-cyclohexyl-N-[3-({[(2,6-dimethylphenyl)amino]carbonyl}amino)-2-naphthoyl]-L-alanine] | 0.49 |  |
| Cc1cc(C)c(NC(=O)Nc2cc(-c3ccc(OC(F)(F)F)cc3)ccc2C(=O)N[C@H](C(=O)O)C2CCCCC2)c(C)c1 [Example 204, (2S)-Cyclohexyl({[4′-[(trifluoromethyl)oxy]-3-({[(2,4,6-trimethylphenyl)amino]carbonyl}amino)-4-biphenylyl]carbonyl}amino)ethanoic acid] |  | 0.19 |
| COc1ccc(-c2cc(NC(=O)Nc3c(C)cc(C)cc3C)c(C(=O)N[C@@H](COC(C)(C)C)C(=O)O)s2)cc1 [Example 445, O-(1,1-dimethylethyl)-N-{[5-[4-(methyloxy)phenyl]-3-({[(2,4,6-trimethylphenyl)amino]carbonyl}amino)-2-thienyl]carbonyl}-L-serine] | 0.082 |  |
| Cc1cccc(Cl)c1NC(=O)Nc1cc(F)c(F)cc1C(=O)N[C@@H](Cc1c[nH]c2ccccc12)C(=O)O [Example 74, N-[2-({[(2-chloro-6-methylphenyl)amino]carbonyl}amino)-4,5-difluorobenzoyl]-L-tryptophan trifluoroacetate] | 6.58 |  |
| COc1ccc(-c2ccc(C(=O)N[C@H](C(=O)O)[C@@H](C)OC(C)(C)C)c(NC(=O)Nc3c(Cl)cc(OC(F)(F)F)cc3Cl)c2)cc1 [Example 232, N-{[3-{[({2,6-Dichloro-4-[(trifluoromethyl)oxy]phenyl}amino)carbonyl]amino}-4′-(methyloxy)-4-biphenylyl]carbonyl}-O-(1,1-dimethylethyl)-L-threonine] |  | 0.007 |
